“And” between values parts separate entries of the source, which are not always exact repeats. Equal values may be shown once.
What was measured:
Proteinase-3 = target: T1, Proteinase-3 (Homo sapiens, UniProt P24158); assay: Proteinase-3 inhibition; type: biochemical; parameters: % Proteinase-3 Inhibition: concentration or dose not given beside the values; conditions: Table 7
T1 sequence (P24158 28-248 limits assumed): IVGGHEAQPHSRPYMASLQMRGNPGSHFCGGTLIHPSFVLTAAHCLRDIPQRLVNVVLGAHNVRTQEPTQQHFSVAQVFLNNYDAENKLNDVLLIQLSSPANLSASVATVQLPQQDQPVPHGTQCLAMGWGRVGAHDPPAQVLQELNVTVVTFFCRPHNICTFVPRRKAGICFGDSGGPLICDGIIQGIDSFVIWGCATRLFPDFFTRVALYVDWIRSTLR
Excerpt: (§1) An in vitro assay can be used to screen compounds of the invention for the ability to reduce or inhibit serine proteinase activity. The human leukocyte elastase (HLE), cathepsin G (Cath G), and proteinase-3 assays have each been described (Groutas et al., J. Med. Chem. 32:1607-1611, 1989; Groutas et al., Arch. Biochem. Biophys. 294:144-146, 1992; Kao et al., J. Clin. Invest. 82:1963-1973, 1988, each incorporated by reference herein). The pseudo first-order inactivation rate constants (kobs) were obtained from plots of ln(vt /vo) vs t, and expressed in terms of the apparent second-order inactivation rate constant, kobs /[I] M^-1 s^-1 (Tables 1-7). Tables 1-7 disclose the activity of preferred compounds of the invention as inhibitors of HLE and Cath G. Table 7 discloses the activity of Compounds 4A (C) and 3E (D) as inhibitors of Proteinase-3 activity. Compounds (A) and (B) have been disclosed previously (Groutas et al., Bioorganic and Med. Chem. 1(4):273-277, 1993; Groutas et al., J. Med. Chem. 36:3178, 1993).

[1] = system: neutrophil diapedesis (peritonitis); assay: Inhibition of neutrophil diapedesis after experimentally induced (starch) peritonitis; type: in vivo, rat; conditions: 8 mg/kg i.v. single dose; for Total Number of Cells Lavaged at 4 Hours, Lymphocytes / Total Number of Cells Lavaged at 4 Hours, Macrophages Monocytes / Total Number of Cells Lavaged at 4 Hours, Neutrophils / Total Number of Cells Lavaged at 4 Hours, Total Cells / Abdominal Lavage Cell Distribution, Lymphocytes / Abdominal Lavage Cell Distribution, Macrophages Monocytes / Abdominal Lavage Cell Distribution, Neutrophils: starch; for Abdominal Lavage Cell Distribution, Lymphocytes / Abdominal Lavage Cell Distribution, Macrophages Monocytes / Abdominal Lavage Cell Distribution, Neutrophils: 4 hours
Description: (§2) Each compound (A-D) was individually injected into the tail vein of a rat in a single dose (8 mg/kg). After injection, peritonitis was induced in the rat by an IP (intraperitoneal) injection of 1 ml of a 0.1% soluble starch solution. After 4 hours, the peritoneal cavity was lavaged with saline in order to determine the number and type of cells responding to peritonitis. Cell numbers were determined by a Coulter counter and cell type (e.g. lymphocytes, neutrophils, macrophages and monocytes) by standard Cytospin and Giemsa staining. Cell number and type was evaluated after IP injection of saline (negative control, no inflammation), starch (positive control, inflammation) or starch with IV injection of an inhibitor (experimental, inflammation). Inhibitors were dissolved in DMSO prior to administration.

[2] = target: T2, human leukocyte elastase (HLE) (Homo sapiens, UniProt P08246); assay: Inactivation of human leukocyte elastase (kobs/[I]); type: biochemical; conditions: for HLE % inhibition: Table 1B footnote, [I]/[E] ratio of 200, 10 minute incubation period
T2 construct: purchased Elastin Products Co., Owensville, Mo
T2 sequence (P08246 30-247 limits assumed): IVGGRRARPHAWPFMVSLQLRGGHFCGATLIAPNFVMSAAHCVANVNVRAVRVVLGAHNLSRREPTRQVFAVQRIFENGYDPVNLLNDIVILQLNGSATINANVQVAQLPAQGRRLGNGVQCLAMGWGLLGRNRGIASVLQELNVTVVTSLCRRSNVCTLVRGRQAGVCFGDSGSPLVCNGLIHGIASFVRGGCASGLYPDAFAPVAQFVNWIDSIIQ
Excerpt: as §1
XII. Materials: Human leukocyte elastase was purchased from Elastin Products Co., Owensville, Mo.
(§3) Human leukocyte cathepsin G was obtained from Athens Research and Technology, Athens, Ga. Methoxysuccinyl Ala-Ala-Pro-Val p-nitroanilide and methoxysuccinyl Ala-Ala-Pro-Phe p-nitroanilide were purchased from Sigma Chemicals Co., St. Louis, Mo. Baker-analyzed 60-200 mesh silica gel was used for flash chromatography.

rat = assay: Overt toxicity in injected rats; type: in vivo
Description: (§4) Inhibitor A or B were each injected twice daily into the tail vein of a rat (8 mg/kg) over a period of three days. Inflammation was not induced in these rats. […] WBC=white blood cells; PMN=polymorphonuclear leukocytes; The elastase assay has been disclosed above.
as §2

cathepsin G (Cath G) = target: T3, cathepsin G (Cath G) (Homo sapiens, UniProt P08311); assay: Inactivation of human leukocyte cathepsin G (kobs/[I]); type: biochemical; conditions: for kinact/KI: pH 7.5
T3 construct: purchased Athens Research and Technology, Athens, Ga
T3 sequence (P08311 21-244 limits assumed): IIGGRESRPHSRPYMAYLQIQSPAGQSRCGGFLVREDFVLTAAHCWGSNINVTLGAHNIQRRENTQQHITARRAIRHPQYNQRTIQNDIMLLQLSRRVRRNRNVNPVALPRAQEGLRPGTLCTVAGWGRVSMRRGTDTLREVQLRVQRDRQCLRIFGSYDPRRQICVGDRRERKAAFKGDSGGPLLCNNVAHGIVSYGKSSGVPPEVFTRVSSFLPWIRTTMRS
Description: Human leukocyte cathepsin G (1.33 uM) is incubated with compound 8 (133 uM) (a) or compound 10 (13.3 uM) (b) in 0.1M HEPES buffer, pH 7.5, and 10% DMSO. Aliquots were withdrawn at different time intervals and assayed for enzymatic activity using methoxysuccinyl Ala-Ala-Pro-Phe p-nitroanilide.
Human leukocyte cathepsin G (1.48 μM was incubated with inhibitor 5A (1.48 μM in 0.1M HEPES buffer, pH 7.5, and 1% DMSO. Aliquots were withdrawn at different time intervals and assayed for enzymatic activity using methoxysuccinyl Ala-Ala-Pro-Phe p-nitroanilide.
as §1, §3

neutrophil elastase = assay: Elastase activity and cell number in peripheral blood neutrophils after administration to rats; type: in vivo; conditions: rat, 8 mg/kg twice daily i.v. for three days
Description: as §4

[3] = system: peripheral blood neutrophils and lymphocytes; assay: Peripheral blood cell distribution after administration to rats without inflammation; type: in vivo; conditions: rat, 8 mg/kg twice daily for three days
Description: Compound A or Compound B were each administered twice daily for three days at a dose of 8 mg/kg. Inflammation was not induced in these rats. […] However, substitution of the aspirin moiety with a fluorine atom, as found in Compound B, prevents an increase in neutrophil cell number.

[4] = peripheral blood neutrophils, per animal, 8 mg/kg
[5] = no inflammation, per animal, 8 mg/kg

Compound: O=C(CSc1ccccc1)OCN1C(=O)c2ccccc2S1(=O)=O
- % Proteinase-3 Inhibition (Proteinase-3): 66%

Compound: CC(C)C[C@H]1C(=O)N(CS(=O)(=O)c2ccccc2)S(=O)(=O)N1C [Compound 3E]
- Total Number of Cells Lavaged at 4 Hours, Lymphocytes ([1]; Experiment 2): 6.4 × 10^6
- Total Number of Cells Lavaged at 4 Hours, Macrophages Monocytes ([1]; Experiment 2): 7.7 × 10^6
- Total Number of Cells Lavaged at 4 Hours, Neutrophils ([1]; Experiment 2): 17.9 × 10^6
- Total Number of Cells Lavaged at 4 Hours, Total Cells ([1]; Experiment 2): 32 × 10^6
- Abdominal Lavage Cell Distribution, Lymphocytes ([1]; Experiment 2): 20%
- Abdominal Lavage Cell Distribution, Macrophages Monocytes ([1]; Experiment 2): 24%
- Abdominal Lavage Cell Distribution, Neutrophils ([1]; Experiment 2): 56%
- effect on neutrophil diapedesis (in words) ([1]; rat): substantially reduced neutrophil diapedesis
- inhibition of elastase (in words) [2]: an elastase inhibitor
- kinact/KI ([2]; Table 6): 7580 M⁻¹ s⁻¹
- toxicity (in words) (rat; rat peritonitis test, 8 mg/kg i.v. single dose): non-toxic

Compound: CC(C)(C)OC(=O)CN1[C@@H](Cc2ccccc2)C(=O)N(CF)S1(=O)=O [Compound 4A, (S)-4-Benzyl-5(tert-butoxycarbonylmethyl)-2-fluoromethyl-3-oxo-1,2,5-thiadiazolidine 1.1-dioxide]
- Total Number of Cells Lavaged at 4 Hours, Lymphocytes ([1]; Experiment 2): 6.5 × 10^6
- Total Number of Cells Lavaged at 4 Hours, Macrophages Monocytes ([1]; Experiment 2): 6.5 × 10^6
- Total Number of Cells Lavaged at 4 Hours, Neutrophils ([1]; Experiment 2): 41.0 × 10^6
- Total Number of Cells Lavaged at 4 Hours, Total Cells ([1]; Experiment 2): 54 × 10^6
- Abdominal Lavage Cell Distribution, Lymphocytes ([1]; Experiment 2): 12%
- Abdominal Lavage Cell Distribution, Macrophages Monocytes ([1]; Experiment 2): 12%
- Abdominal Lavage Cell Distribution, Neutrophils ([1]; Experiment 2): 76%
- effect on neutrophil diapedesis (in words) ([1]; rat): did not inhibit neutrophil diapedesis associated with peritonitis
- inhibition of Cath G (in words) (cathepsin G (Cath G)): an inhibitor of Cath G
- kinact/KI ([2]; Table 2): 490 M⁻¹ s⁻¹

Compound: C=C(N1C(=O)C(Cc2ccccc2)CS1(=O)=O)S(=O)(=O)c1ccccc1 (stereo not drawn) [Compound 9, 4-Benzyl-2-(1-phenylsulfonylvinyl)isothiazolidin-3-one 1,1-dioxide]
- kinact/KI (cathepsin G (Cath G); Table 1B): 340 M⁻¹ s⁻¹
- HLE % inhibition [2]: 20%

Compound: C[C@@H](NC(=O)OCc1ccccc1)C(=O)OCN1C(=O)C(Cc2ccccc2)CS1(=O)=O (stereo partly drawn) [Compound 9B]
- kinact/KI (cathepsin G (Cath G); Table 3): 1820 M⁻¹ s⁻¹
- kinact/KI ([2]; Table 3): 300 M⁻¹ s⁻¹

Compound: O=C1C(Cc2ccccc2)CS(=O)(=O)N1CS(=O)(=O)c1ccccc1 (stereo not drawn) [Compound 10, 4-Benzyl-2-(1-phenylsulfonylmethyl)isothiazolidin-3-one 1,1-dioxide]
- time-dependent loss of serine protease activity (cathepsin G (Cath G); FIG. 5, Cath G 1.33 uM, inhibitor 13.3 uM, 0.1M HEPES pH 7.5, 10% DMSO): time-dependent loss of serine protease activity
- kinact/KI (cathepsin G (Cath G); Table 1B): 960 M⁻¹ s⁻¹
- HLE % inhibition [2]: 12%

Compound: C[C@@H](NC(=O)OC(C)(C)C)C(=O)OCN1C(=O)C(Cc2ccccc2)CS1(=O)=O (stereo partly drawn) [Compound 10B]
- kinact/KI (cathepsin G (Cath G); Table 3): 560 M⁻¹ s⁻¹
- kinact/KI ([2]; Table 3): 310 M⁻¹ s⁻¹

Compound: O=C(CNC(=O)OCc1ccccc1)OCN1C(=O)C(Cc2ccccc2)CS1(=O)=O (stereo not drawn) [Compound 11B]
- kinact/KI (cathepsin G (Cath G); Table 3): 2680 M⁻¹ s⁻¹
- kinact/KI ([2]; Table 3): 220 M⁻¹ s⁻¹

Compound: CC(=O)Oc1ccccc1C(=O)OCN1C(=O)c2ccccc2S1(=O)=O [Drug A]
- Total Number of Cells Lavaged at 4 Hours, Lymphocytes ([1]; Experiment 1): 7.0 × 10^6
- Total Number of Cells Lavaged at 4 Hours, Macrophages Monocytes ([1]; Experiment 1): 7.6 × 10^6
- Total Number of Cells Lavaged at 4 Hours, Neutrophils ([1]; Experiment 1): 11.0 × 10^6
- Total Number of Cells Lavaged at 4 Hours, Total Cells ([1]; Experiment 1): 25 × 10^6
- Abdominal Lavage Cell Distribution, Lymphocytes ([1]; Experiment 1): 28%
- Abdominal Lavage Cell Distribution, Macrophages Monocytes ([1]; Experiment 1): 38%
- Abdominal Lavage Cell Distribution, Neutrophils ([1]; Experiment 1): 44%
- reduction of peritonitis induced neutrophil diapedesis ([1]; rat): more than 50%
- Elastase Activity (neutrophil elastase; [4]): 0.55 ΔOD/min/ml and 0.70 ΔOD/min/ml
- Elastase Activity Rate/10^6 PMN (neutrophil elastase; [4]): 0.014 and 0.015
- entry into neutrophils in vivo (in words) (neutrophil elastase): do not enter neutrophils in vivo
- inactivation of neutrophil intracellular proteinase (in words) (neutrophil elastase): fails to inactivate neutrophil intracellular proteinase
- PMN (neutrophil elastase; per animal, 8 mg/kg): 41.4 × 10^6 and 45.7 × 10^6
- Total WBC (neutrophil elastase; per animal, 8 mg/kg): 46.0 × 10^6 and 55.0 × 10^6
- effect on elastase activity in circulating neutrophils (in words) (neutrophil elastase; vs vehicle): did not reduce elastase activity in circulating neutrophils
- morphology of circulating cells (in words) [3]: most of the circulating cells are morphologically mature
- Peripheral Blood Cell Distribution, Lymphocytes [3, 5]: 10% and 17%
- Peripheral Blood Cell Distribution, Neutrophils [3, 5]: 90% and 83%
- effect on number of neutrophils in peripheral circulation (in words) ([3]; no inflammation, vs vehicle): caused an increase in the number of neutrophils into the peripheral circulation
- overt signs of toxicity (rat; rat, 8 mg/kg twice daily i.v. for three days): no overt signs of toxicity

Compound: CC(C)CC1C(=O)N(CS(=O)(=O)c2ccccc2)S(=O)(=O)N1Cc1ccccc1 (stereo not drawn) [drawing 92 R = benzyl]
- % Proteinase-3 Inhibition (Proteinase-3): 86%

Compound: CC(C)CC1C(=O)N(CS(=O)(=O)c2ccccc2)S(=O)(=O)N1C (stereo not drawn) [drawing 92 R = methyl]
- % Proteinase-3 Inhibition (Proteinase-3): 84%

Compound: CC(C)(C)OC(=O)CN1[C@@H](Cc2ccccc2)C(=O)N(CF)S1(=O)=O [drawing 93 R = CH2 COOt-BOC]
- % Proteinase-3 Inhibition (Proteinase-3): 33%

Compound: O=C1C(Cc2ccccc2)N(Cc2ccccc2)S(=O)(=O)N1CF (stereo not drawn) [drawing 93 R = benzyl]
- % Proteinase-3 Inhibition (Proteinase-3): 43%

Compound: CN1C(Cc2ccccc2)C(=O)N(CF)S1(=O)=O (stereo not drawn) [drawing 93 R = methyl]
- % Proteinase-3 Inhibition (Proteinase-3): 55%

Compound: O=C1c2ccccc2S(=O)(=O)N1CF [drawing 94]
- % Proteinase-3 Inhibition (Proteinase-3): 79%

Compound: O=C1C(Cc2ccccc2)CS(=O)(=O)N1CF (stereo not drawn) [drawing 96]
- Proteinase-3 Inhibition (in words) (Proteinase-3): inactive
